# According to US20100210557A1, “USE OF RFRP, ALONE OR IN COMBINATION WITH NEUROKININ-B, AS A THERAPEUTIC AGENT” (priority 2007, published 2010):
# No end group written: not given here.
# Assays:
# [1] = system: hepatitis B virus (HBV) ayw strain; assay: HBV assay in HepG2-2.2.15 cells (secreted HBV DNA by TaqMan PCR); assay type: cell-based; conditions: 10 micrograms per ml; six days; HBV DNA in supernatant
# Excerpt: HepG2-2.2.15 is a stable cell line containing the hepatitis B virus (HBV) ayw strain genome (ATCC Cat. No. CRL-11997). Antiviral compounds blocking any late step of viral replication such as transcription, translation, pregenome encapsidation, reverse transcription, particle assembly and release can be identified and characterized using this cell line. In this assay, an active compound will reduce the production of secreted HBV from cells, measured by utilizing real time quantitative PCR (TaqMan) assay to directly and accurately measure HBV DNA copies.
# HepG2-2.2.15 cells were plated in 96-well microtiter plates. After 16-24 hours the confluent monolayer of HepG2-2.2.15 cells was washed and the medium was replaced with complete medium containing test peptides—10 micrograms per ml—in duplicate. […] Six days following the initial administration of the peptides, the cell culture supernatants was collected, treated with pronase and DNAse and then used in a real-time quantitative TaqMan PCR assay. The PCR-amplified HBV DNA was detected in real-time by monitoring increases in fluorescence signals that result from the exonucleolytic degradation of a quenched fluorescence probe molecule that hybridizes to the amplified HBV DNA. […] Antiviral activity was calculated from the reduction in HBV DNA levels (% virus control). […]
# [2] = system: spleen cells of Ovalbumin-immunized Balb/c mice; assay: Th1/Th2 cytokine profiling assay; assay type: cell-based, mouse; conditions: 10 micrograms per ml; Ovalbumin restimulation 10 micrograms/ml; 72 hours
# Experimental: The Balb/c mice (originated in 1923, it is a popular strain and is used in many different research disciplines. […] On day 50, spleens of the mice were harvested (3 weeks after last boost with Ovalbumin). […] Thereafter, additional Ovalbumin was added to the cells at 10 micrograms/ml for in vitro restimulation of the cells. 72 hours later, cell supernatants were harvested and assayed using the Becton Dickinson Mouse […] Cytokine CBA Kit. This kit can be used to measure Interleukin-2 (IL-2), Interleukin-4 (IL-4), Interleukin-5 (IL-5), Interferon-γ (IFN-γ), and Tumor Necrosis Factor-α (TNF-α) protein levels in a single sample. The kit performance has been optimized for analysis of physiologically relevant concentrations (pg/ml levels) of specific cytokine proteins in tissue culture supernatants and serum samples.
# HCMV strain AD169 = assay: HCMV plaque formation assay in MRC-5 cells; conditions: for inhibition of HCMV plaque formation as compared to the virus control: 10 micrograms per ml, 7-10 days
# [3] = system: LPS-induced TNF-alpha production in human macrophages; assay: TNF alpha production assay (ELISA); assay type: cell-based; conditions: 10 micrograms per ml; LPS 200 ng/ml; overnight
# Experimental: Human Peripheral Blood Mononuclear Cells (PBMC) were obtained from normal human donors. The macrophages were prepared by adherence of PBMC to the plastic wells of the plates. […] Not stimulated macrophages served as negative background control. After overnight incubation, supernatants from the control and LPS-stimulated cultures were harvested and assayed for TNF alpha production employing a TNF alpha specific ELISA.
Compound,inhibition of HBV replication as compared to the virus control infection [1] [%],IFNγ spleen cells; TH1 response (% of control) [2],IL-2 spleen cells (% of control) [2],IL-4 spleen cells; TH2 response (% of control) [2],IL-5 spleen cells; TH2 response (% of control) [2],TNF-a spleen cells; TH1 response (% of control) [2],inhibition of HCMV plaque formation as compared to the virus control (HCMV strain AD169),induction of the LPS-induced TNF-alpha production in human macrophages [3] [%],antiviral activity of positive control compound (HCMV) (HCMV strain AD169; positive control)
Asp-Met-His-Asp-Phe-Phe-Val-Gly-Leu-Met-NH2 (DMHDFFVGLM-NH2) [Peptide 2],78.5,126.8 % of control,198.0 % of control,103.5 % of control,99.2 % of control,151.0 % of control,did not inhibit,15.9,
"Nc1nc(O)c2ncn(COC(CO)CO)c2n1 [Ganciclovir, reference compound]",,,,,,,,,expected levels of antiviral activity
Met-Pro-His-Ser-Phe-Ala-Asn-Leu-Pro-Leu-Arg-Phe-NH2 (MPHSFANLPLRF-NH2) [Peptide 1],77.8,57.5 % of control,239.7 % of control,168.7 % of control,99.2 % of control,106.3 % of control,did not inhibit,21.7,
